Source: patent US9708336B2, “Metallo-beta-lactamase inhibitors” (priority 2014, dated 2017)
Read-outs that look alike come from different tables or passages of the source.

Tests used:
NDM-1 = NDM-1 (Klebsiella pneumoniae, UniProt C7C422); assay: biochemical; format: biochemical; conditions: read-out: NDM-1 IC50
VIM-1 = VIM-1 (Pseudomonas aeruginosa (strain ATCC 15692 / DSM 22644 / CIP 104116 / JCM 14847 / LMG 12228 / 1C / PRS 101 / PAO1), UniProt A0A0F7KYQ8); assay: Enzyme activity: determination of IC50, fluorescence assay with CCF2-FA substrate (VIM-1); format: biochemical
[1] = test system: Escherichia coli expressing NDM-1 (CLB30016); assay: Antibiotic potentiation activity: synergistic concentration (MITC95) with imipenem, OD600 growth; format: cell-based; conditions: for Escherichia coli expressing NDM-1 (CLB 30016) MITC95: concentration giving 95% inhibition of bacterial growth
Method in brief: (§1)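 Bacteria were grown overnight on agar at 35 °C, diluted 1:100 from saline into 1.1× CAMHB, then given compound with or without imipenem (4 μg/ml in assay, optionally 1 μg/ml). Endpoint: absorbance at 22–24 h.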

[2] = test system: Klebsiella pneumoniae expressing VIM-1 (IHMA599644); assay: as above; format: cell-based; conditions: for Klebsiella pneumoniae expressing VIM-1 (IHMA 599644) MITC95: concentration giving 95% inhibition of bacterial growth
Method in brief: as §1

[3] = test system: Serratia marcescens expressing IMP-1 (CL5741); assay: as above; format: cell-based; conditions: for Serratia marcescens expressing IMP-1 (CL5741) MITC95: concentration giving 95% inhibition of bacterial growth
Method in brief: as §1

IMP-1 = IMP-1 (Serratia marcescens, UniProt P52699); assay: biochemical; format: biochemical; conditions: read-out: IMP-1 IC50
[4] = NDM-1 enzyme, CCF2-FA substrate
[5] = VIM-1 enzyme, CCF2-FA substrate, read-out: VIM-1 IC50
[6] = (CLB30016, NDM-1), 95% growth inhibition
[7] = Klebsiella pneumoniae IHMA599644 (VIM-1), 95% growth inhibition
[8] = Serratia marcescens CL5741 (IMP-1), 95% growth inhibition
[9] = IMP-1 enzyme, CCF2-FA substrate
[10] = fluorescence assay with CCF2-FA substrate
[11] = fluorescence assay with CCF2-FA substrate, read-out: VIM-1 IC50
[12] = CLB30016 (NDM-1), 95% inhibition of bacterial growth
[13] = IHMA599644 (VIM-1), 95% inhibition of bacterial growth
[14] = CL5741 (IMP-1), 95% inhibition of bacterial growth
[15] = VIM-1 IC50, VIM-1 enzyme, CCF2-FA substrate
[16] = NDM-1 enzyme, CCF2-FA fluorescence assay
[17] = VIM-1 enzyme, CCF2-FA fluorescence assay, read-out: VIM-1 IC50
[18] = Escherichia coli expressing NDM-1 (CLB30016), 95% growth inhibition
[19] = Klebsiella pneumoniae expressing VIM-1 (IHMA599644), 95% growth inhibition
[20] = Serratia marcescens expressing IMP-1 (CL5741), 95% growth inhibition
[21] = IMP-1 enzyme, CCF2-FA fluorescence assay

Sequence of NDM-1 (C7C422 whole entry, looked up, species assumed): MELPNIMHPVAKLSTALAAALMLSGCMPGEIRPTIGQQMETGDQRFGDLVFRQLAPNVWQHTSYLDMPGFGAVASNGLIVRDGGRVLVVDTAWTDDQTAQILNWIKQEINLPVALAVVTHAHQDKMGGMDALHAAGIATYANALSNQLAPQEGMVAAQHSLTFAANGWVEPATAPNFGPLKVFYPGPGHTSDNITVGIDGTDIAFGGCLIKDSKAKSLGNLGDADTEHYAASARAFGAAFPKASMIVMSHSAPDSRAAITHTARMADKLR
Sequence of IMP-1 (P52699 whole entry, looked up): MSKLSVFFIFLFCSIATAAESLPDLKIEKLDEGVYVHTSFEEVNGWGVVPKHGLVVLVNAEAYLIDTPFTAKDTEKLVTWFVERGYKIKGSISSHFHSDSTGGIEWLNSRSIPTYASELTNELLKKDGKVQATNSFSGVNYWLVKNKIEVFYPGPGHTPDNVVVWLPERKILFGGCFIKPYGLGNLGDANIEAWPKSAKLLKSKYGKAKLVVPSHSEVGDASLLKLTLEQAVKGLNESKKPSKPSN

SMILES: Nc1nc(-c2ccc(-c3ccc(C(F)(F)F)c(S(N)(=O)=O)c3-c3nnn[nH]3)cc2)cs1 [Example 732, 4′-(2-amino-1,3-thiaozl-4-yl)-2-(1H-tetrazol-5-yl)-4-(trifluoromethyl)biphenyl-3-sulfonamide]
- IC50 (NDM-1; [4]): 0.534 nM
- IC50 (VIM-1; [5]): 0.69 nM
- Escherichia coli MITC95 [1, 6]: 0.7813 µM
- Klebsiella pneumoniae MITC95 [2, 7]: 25 µM
- Serratia marcescens MITC95 [3, 8]: 3.125 µM
- IC50 (IMP-1; [9]): 0.384 nM

SMILES: CN(C)c1ccc(C(F)(F)F)c(S(N)(=O)=O)c1-c1nnn[nH]1 [Example 784, 3-(dimethylamino)-2-(1H-tetrazol-5-yl)-6-(trifluoromethyl) benzenesulfonamide]
- IC50 (NDM-1; [10]): 41.7 nM
- IC50 (VIM-1; [11]): 15.5 nM
- Escherichia coli MITC95 [1, 12]: 3.125 µM
- Klebsiella pneumoniae MITC95 [2, 13]: 31.25 µM
- Serratia marcescens MITC95 [3, 14]: 3.125 µM
- IC50 (IMP-1; [10]): 48.3 nM

SMILES: NCC1(N)CCC(c2ccc(C(F)(F)F)c(S(N)(=O)=O)c2-c2nnn[nH]2)CC1 (stereo not drawn) [Example 497, 3-(4-Amino-4-(aminomethyl)cyclohexyl)-2-(1H-tetrazol-5-yl)-6-(trifluoromethyl)benzenesulfonamide]
- IC50 (NDM-1; [4]): 3.06 nM
- IC50 (VIM-1; [15]): 59.5 nM
- Escherichia coli MITC95 [1, 6]: 0.5859 µM
- Klebsiella pneumoniae MITC95 [2, 7]: 6.25 µM
- Serratia marcescens MITC95 [3, 8]: 0.3906 µM
- IC50 (IMP-1; [9]): 25.8 nM

SMILES: NS(=O)(=O)c1cccc(CCc2ccccc2)c1-c1nnn[nH]1 [Example 154, 3-phenethyl-2-(1H-tetrazol-5-yl)benzenesulfonamide]
- IC50 (NDM-1; [10]): 3.28 nM
- IC50 (VIM-1; VIM-1 IC50, fluorescence assay with CCF2-FA substrate): 80.8 nM
- Escherichia coli expressing NDM-1 (CLB 30016) MITC95 [1]: 2.344 µM
- Klebsiella pneumoniae expressing VIM-1 (IHMA 599644) MITC95 [2]: 100 µM
- Serratia marcescens expressing IMP-1 (CL5741) MITC95 [3]: 0.3906 µM
- IC50 (IMP-1; [10]): 10.8 nM

SMILES: Nc1nc2cc(F)cc(-c3ccc(C(F)(F)F)c(S(N)(=O)=O)c3-c3nnn[nH]3)c2[nH]1 [Example 566, 3-(2-amino-5-fluoro-1H-benzo[d]imidazol-7-yl)-2-(1H-tetrazol-5-yl)-6-(trifluoromethyl)benzenesulfonamide]
- IC50 (NDM-1; [4]): 0.233 nM
- IC50 (VIM-1; [5]): 0.508 nM
- Escherichia coli MITC95 [1, 6]: 0.7813 µM
- Klebsiella pneumoniae MITC95 [2, 7]: 3.125 µM
- Serratia marcescens MITC95 [3, 8]: 3.125 µM
- IC50 (IMP-1; [9]): 2.68 nM

SMILES: NS(=O)(=O)c1c(C(F)(F)F)ccc(C2CCCC2)c1-c1nnn[nH]1 [Example 490, 3-cyclopentyl-2-(1H-tetrazol-5-yl)-6-(trifluoromethyl)benzenesulfonamide]
- IC50 (NDM-1; [16]): 2.57 nM
- IC50 (VIM-1; [17]): 2.35 nM
- Escherichia coli MITC95 [1, 18]: 1.281 µM
- Klebsiella pneumoniae MITC95 [2, 19]: 9.375 µM
- Serratia marcescens MITC95 [3, 20]: 0.375 µM
- IC50 (IMP-1; [21]): 5.61 nM

SMILES: N=C(N)N1CCC(c2ccc(-c3cccc(S(N)(=O)=O)c3-c3nn[nH]n3)cc2)CC1 [Example 32, 4-(3′-Sulfamoyl-2′-(2H-tetrazol-5-yl)-[1,1′-biphenyl]-4-yl)piperidine-1-carboximidamide]
- IC50 (NDM-1; [10]): 3.46 nM
- IC50 (VIM-1; [11]): 77.8 nM
- Escherichia coli expressing NDM-1 (CLB 30016) MITC95 [1]: 0.5859 µM
- Klebsiella pneumoniae expressing VIM-1 (IHMA 599644) MITC95 [2]: 25 µM
- Serratia marcescens expressing IMP-1 (CL5741) MITC95 [3]: 0.7813 µM
- IC50 (IMP-1; [10]): 18 nM

SMILES: NS(=O)(=O)c1cccc(-c2snc3ncccc23)c1-c1nnn[nH]1 [Example 413, 3-isothiazolo[3,4-b]pyridin-3-yl-2-(1H-tetrazol-5-yl)benzenesulfonamide]
- IC50 (NDM-1; [16]): 2.12 nM
- IC50 (VIM-1; [17]): 2.08 nM
- Escherichia coli MITC95 [1, 18]: 0.5859 µM
- Klebsiella pneumoniae MITC95 [2, 19]: 4.688 µM
- Serratia marcescens MITC95 [3, 20]: 9.375 µM
- IC50 (IMP-1; [21]): 340 nM

SMILES: CC(C)[C@H](N)CN1CCC(c2ccc(-c3cccc(S(N)(=O)=O)c3-c3nnn[nH]3)cc2)CC1 [Example 615, 3-[4-[1-[(2S)-2-amino-3-methyl-butyl]-4-piperidyl]phenyl]-2-(1H-tetrazol-5-yl)benzenesulfonamide]
- IC50 (NDM-1; [4]): 9.84 nM
- IC50 (VIM-1; [5]): 621 nM
- Escherichia coli MITC95 [1, 6]: 0.7813 µM
- Klebsiella pneumoniae MITC95 [2, 7]: >200 µM
- Serratia marcescens MITC95 [3, 8]: 1.172 µM
- IC50 (IMP-1; [9]): 16.7 nM

SMILES: NS(=O)(=O)c1cccc(-c2cccc3sc(NC4CCN(CCF)CC4)nc23)c1-c1nnn[nH]1 [Example 646, 3-[2-[[1-(2-fluoroethyl)-4-piperidyl]amino]-1,3-benzothiazol-4-yl]-2-(1H-tetrazol-5-yl)benzenesulfonamide]
- IC50 (NDM-1; [4]): 0.851 nM
- IC50 (VIM-1; [15]): 5.1 nM
- Escherichia coli MITC95 [1, 6]: 3.125 µM
- Klebsiella pneumoniae MITC95 [2, 7]: 100 µM
- Serratia marcescens MITC95 [3, 8]: 50 µM
- IC50 (IMP-1; [9]): 31.8 nM

SMILES: NS(=O)(=O)c1cccc(-c2ccc(CNC3CCN(C4CCCC4)CC3)cc2)c1-c1nnn[nH]1 [Example 379, 4′-{[(1-cyclopentylpiperidin-4-yl)amino]methyl}-2-(1H-tetrazol-5-yl)biphenyl-3-sulfonamide]
- IC50 (NDM-1; [16]): 27.3 nM
- IC50 (VIM-1; [17]): 639 nM
- Escherichia coli MITC95 [1, 18]: 1.563 µM
- Klebsiella pneumoniae MITC95 [2, 19]: 200 µM
- Serratia marcescens MITC95 [3, 20]: 4.688 µM
- IC50 (IMP-1; [21]): 318 nM

SMILES: NS(=O)(=O)c1c(C(F)(F)F)ccc(-c2ccc(N3CCNCC3)cc2)c1-c1nnn[nH]1 [Example 717, 4′-piperazin-1-yl-2-(1H-tetrazol-5-yl)-4-(trifluoromethyl)biphenyl-3-sulfonamide]
- IC50 (NDM-1; [4]): 1.64 nM
- IC50 (VIM-1; [5]): 0.598 nM
- Escherichia coli MITC95 [1, 6]: 1.563 µM
- Klebsiella pneumoniae MITC95 [2, 7]: 3.125 µM
- Serratia marcescens MITC95 [3, 8]: 3.125 µM
- IC50 (IMP-1; [9]): 2.62 nM

SMILES: CCn1c(N)nc2cc(-c3ccc(C(F)(F)F)c(S(N)(=O)=O)c3-c3nnn[nH]3)ccc21 [Example 752, 3-(2-amino-1-ethyl-1H-benzimidazol-5-yl)-2-(1H-tetrazol-5-yl)-6-(trifluoromethyl)benzenesulfon-amide]
- IC50 (NDM-1; [10]): 2.33 nM
- IC50 (VIM-1; [11]): 0.677 nM
- Escherichia coli MITC95 [1, 12]: 1.563 µM
- Klebsiella pneumoniae MITC95 [2, 13]: 25 µM
- Serratia marcescens MITC95 [3, 14]: 12.5 µM
- IC50 (IMP-1; [10]): 6.25 nM

SMILES: N=C(N)N1CCC(Cc2ccc(-c3ccc(C4CNC4)cc3)c(-c3nn[nH]n3)c2S(N)(=O)=O)CC1 [Example 604, 4-[[4-[4-(azetidin-3-yl)phenyl]-2-sulfamoyl-3-(2H-tetrazol-5-yl)phenyl]methyl]piperidine-1-carboxamidine]
- IC50 (NDM-1; [4]): 3.31 nM
- IC50 (VIM-1; [5]): 0.899 nM
- Escherichia coli MITC95 [1, 6]: 1.563 µM
- Klebsiella pneumoniae MITC95 [2, 7]: 1.563 µM
- Serratia marcescens MITC95 [3, 8]: 6.25 µM
- IC50 (IMP-1; [9]): 41.7 nM

SMILES: Cc1cc(N)ncc1Cc1cccc(S(N)(=O)=O)c1-c1nn[nH]n1 [Example 573, 3-((6-amino-4-methylpyridin-3-yl)methyl)-2-(2H-tetrazol-5-yl)benzenesulfonamide]
- IC50 (NDM-1; [4]): 38.6 nM
- IC50 (VIM-1; [5]): 41.4 nM
- Escherichia coli MITC95 [1, 6]: 0.7813 µM
- Klebsiella pneumoniae MITC95 [2, 7]: 12.5 µM
- Serratia marcescens MITC95 [3, 8]: 12.5 µM
- IC50 (IMP-1; [9]): 668 nM

SMILES: C[N+]1(C)CC(c2ccc(-c3ccc(C(F)(F)F)c(S(N)(=O)=O)c3-c3nn[nH]n3)cc2)C1 [Example 435, 1,1-dimethyl-3-(3′-sulfamoyl-2′-(2H-tetrazol-5-yl)-4′-(trifluoromethyl)-[1,1′-biphenyl]-4-yl)azetidin-1-ium]
- IC50 (NDM-1; [16]): 12 nM
- IC50 (VIM-1; [17]): 2.37 nM
- Escherichia coli MITC95 [1, 18]: 1.281 µM
- Klebsiella pneumoniae MITC95 [2, 19]: 3.125 µM
- Serratia marcescens MITC95 [3, 20]: 0.25 µM
- IC50 (IMP-1; [21]): 11.1 nM
